Results as given in ChEMBL document CHEMBL1201862, “PubChem BioAssay data set” (2004).
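Five compound concentrations were applied to cells in 96-well plates for 48 hours; endpoints were derived by simple linear interpolation of the resulting dose-response curve. The concentration for 50% growth inhibition is given as GI50.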 Calls of active or inactive are those of the source. No stated cut-off is given here; in the data, active = GI50 up to about 1.1 µM and inactive = higher.

How the values were obtained:
Experiment in all cases: NCI anticancer screen, dose series, 48 h
[1] = system: CAKI-1
[2] = system: CCRF-CEM
[3] = system: HOP-62
[4] = system: KM12
[5] = system: LOX IMVI
[6] = system: M14
[7] = system: MOLT-4
[8] = system: Malme-3M
[9] = system: NCI-H23
[10] = system: NCI-H522
[11] = system: OVCAR-3
[12] = system: OVCAR-8
[13] = system: RPMI-8226
[14] = system: SK-MEL-2
[15] = system: SK-MEL-5
[16] = system: SNB-19
[17] = system: UACC-257
[18] = system: HCC 2998

SMILES | GI50 [1] | GI50 [2] | GI50 [3] | GI50 [4] | GI50 [5] | GI50 [6] | GI50 [7] | GI50 [8] | GI50 [9] | GI50 [10] | GI50 [11] | GI50 [12] | GI50 [13] | GI50 [14] | GI50 [15] | GI50 [16] | GI50 [17] | GI50 [18]
CC1=CC(=O)NP(=O)(Oc2ccc(C)cc2)N1 (stereo unspecified) | > 100 µM (inactive) | > 100 µM (inactive) | > 100 µM (inactive) | > 100 µM (inactive) | > 100 µM (inactive) | > 100 µM (inactive) | > 100 µM (inactive) | > 100 µM (inactive) | > 100 µM (inactive) | > 100 µM (inactive) | > 100 µM (inactive) | > 100 µM (inactive) | > 100 µM (inactive) | > 100 µM (inactive) | > 100 µM (inactive) | > 100 µM (inactive) | > 100 µM (inactive) | 
NC(=S)N/N=C/c1cn(CCCl)c2ccccc12 | 18.7 µM (inactive) | 20.7 µM (inactive) | 89.5 µM (inactive) | 32.7 µM (inactive) | 25 µM (inactive) | 56.4 µM (inactive) | 14.2 µM (inactive) | > 100 µM (inactive) | > 100 µM (inactive) | 11.9 µM (inactive) | 36.8 µM (inactive) | 57.3 µM (inactive) | 14.2 µM (inactive) | 72.1 µM (inactive) | 15.9 µM (inactive) | > 100 µM (inactive) | 22 µM (inactive) | 
CC1OC(n2cc(C(F)(F)F)c(=O)[nH]c2=O)C=CC1=O (stereo unspecified) |  |  | 27.7 µM (inactive) | 18.5 µM (inactive) | 17.6 µM (inactive) | 22.9 µM (inactive) | 22.6 µM (inactive) | 18.4 µM (inactive) | 18.2 µM (inactive) | 16 µM (inactive) | 17.7 µM (inactive) | 27.2 µM (inactive) | 13.5 µM (inactive) | 18.2 µM (inactive) |  | 16.4 µM (inactive) | 19.1 µM (inactive) | 18.3 µM (inactive)
O=C(COc1ccc(Cl)cc1)N1CCN(C(=O)COc2ccc(Cl)cc2)c2ccccc21 |  | 34 µM (inactive) | > 100 µM (inactive) | 57 µM (inactive) | 91.2 µM (inactive) |  | 19.2 µM (inactive) | 36.6 µM (inactive) | > 100 µM (inactive) | 22.5 µM (inactive) | 54.6 µM (inactive) | 53.2 µM (inactive) | 20.6 µM (inactive) | 28.1 µM (inactive) |  |  | 25.2 µM (inactive) | > 100 µM (inactive)
CC12CP(=O)(c3ccccc3)CC1C2(Cl)Cl (stereo unspecified) |  | > 100 µM (inactive) | > 100 µM (inactive) | > 100 µM (inactive) | > 100 µM (inactive) | > 100 µM (inactive) | > 100 µM (inactive) |  | > 100 µM (inactive) | > 100 µM (inactive) | > 100 µM (inactive) | > 100 µM (inactive) | > 100 µM (inactive) |  | > 100 µM (inactive) | > 100 µM (inactive) |  | > 100 µM (inactive)
CC[C@H]1[C@@H](C)C=C[C@@H](C)N1S(=O)(=O)c1ccc(C)cc1 | > 100 µM (inactive) | > 100 µM (inactive) | > 100 µM (inactive) | > 100 µM (inactive) | > 100 µM (inactive) | > 100 µM (inactive) | 79.3 µM (inactive) | > 100 µM (inactive) | > 100 µM (inactive) | 30.3 µM (inactive) | > 100 µM (inactive) | > 100 µM (inactive) | 34.1 µM (inactive) | 19.8 µM (inactive) | 92 µM (inactive) | 0.693 µM (active) | > 100 µM (inactive) | 
O=C1C2C3C=C4c5ccccc5N(c5ccccc5)C4(C2C(=O)N1c1ccc(Cl)cc1)[C@H]1C(=O)N(c2ccc(Cl)cc2)C(=O)[C@@H]31 (stereo partly specified) | 14.7 µM (inactive) | > 100 µM (inactive) | > 100 µM (inactive) | > 100 µM (inactive) | > 100 µM (inactive) | 35.7 µM (inactive) | > 100 µM (inactive) | > 100 µM (inactive) | > 100 µM (inactive) | 82.6 µM (inactive) | > 100 µM (inactive) | > 100 µM (inactive) | 22.2 µM (inactive) | > 100 µM (inactive) | > 100 µM (inactive) | > 100 µM (inactive) | > 100 µM (inactive) | 
